Results taken from patent US9145415B2, “Nitrogen-containing heterocyclic compound or salt thereof” (FUJIFILM Corporation, priority 2012, dated 2015).
Like-named read-outs stand apart in the source and are kept apart here.

Legend:
Molm-13 cells = test: Leukemia cell proliferation inhibition test (ATPlite), Molm-13; type: cell-based; details: Homo sapiens, read-out: MOLM13 cell proliferation inhibition effect
Summary of the method: (§1)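 Proliferation inhibition is quantified from total cellular ATP, measured by luciferase luminescence, after cells grow with compound for 72 hours. The GI50 is the concentration giving half the signal of the 0.1% DMSO control, fitted to a sigmoid curve from duplicate points.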

MV4-11 cells = test: Leukemia cell proliferation inhibition test (ATPlite), MV4-11; type: cell-based; details: Homo sapiens, read-out: MV4-11 cell proliferation inhibition effect
Summary of the method: as §1

[1] = target: T1, human FLT3 protein (FLT3 (WT)) (Homo sapiens, UniProt P36888); test: FLT3 inhibition test (FLT3 enzyme inhibition, time-resolved fluorescence of substrate peptide phosphorylation); type: biochemical; details: read-out: FLT3 (WT) enzyme inhibition activity
T1 construct: human FLT3 protein (intracellular region, 564 to 993 aa); GST; purchased Carna Biosciences; host or cells: baculovirus expression system
T1 sequence (P36888 564-993): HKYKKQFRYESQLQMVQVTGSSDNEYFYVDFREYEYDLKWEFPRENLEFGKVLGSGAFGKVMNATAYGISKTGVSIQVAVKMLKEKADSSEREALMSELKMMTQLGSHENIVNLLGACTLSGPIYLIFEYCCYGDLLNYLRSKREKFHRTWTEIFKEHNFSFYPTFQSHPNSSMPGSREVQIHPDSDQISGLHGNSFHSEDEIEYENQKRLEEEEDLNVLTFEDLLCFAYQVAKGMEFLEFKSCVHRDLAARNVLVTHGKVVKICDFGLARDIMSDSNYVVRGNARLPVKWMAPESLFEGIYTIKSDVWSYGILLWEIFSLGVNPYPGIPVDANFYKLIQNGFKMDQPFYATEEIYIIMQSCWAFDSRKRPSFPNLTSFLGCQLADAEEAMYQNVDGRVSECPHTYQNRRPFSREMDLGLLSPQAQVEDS
Summary of the method: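 Substrate peptide phosphorylation detected by time-resolved fluorescence after a 30 min kinase reaction at 25° C with 50 μM ATP (final). Beforehand, compound and FLT3 (WT, 1.2 μg) stood 15 min at 25° C in HEPES buffer pH 7.5 containing MgCl2, NaCl, BSA and DTT.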

[2] = MOLM-13, 72 h, Molm-13, 72 hours culture, ATPlite, GI50 per method
[3] = MV4-11, 72 h, MV4-11, 72 hours culture, ATPlite, GI50 per method
[4] = GST-fused human FLT3 (564 to 993 aa), ATP 50 μM

Compound | IC50 (Molm-13 cells; [2]) | IC50 (MV4-11 cells; [3]) | IC50 [1, 4] | IC50 (Molm-13 cells; MOLM-13, MOLM13 cell) | IC50 (MV4-11 cells; MV4-11, MV4-11 cell) | IC50 ([1]; FLT3 (WT))
CCCNc1nc(Nc2cc(C)no2)ncc1C#CCCCNC(=O)[C@@H]1CCCN1C(=O)/C=C/CN(C)C [Compound 7-79] | < 10 nM | < 10 nM | < 10 nM |  |  | 
CCCNc1nc(NC(=O)Nc2ccncc2)ncc1C(=O)NCCCNC(=O)CN(C)C(=O)/C=C/CN(C)C [Compound 6-13] | 100 to 1000 nM | 100 to 1000 nM | < 10 nM |  |  | 
C[C@@H](C(=O)NCCC(C)(C)C#Cc1cnc(Nc2ccc(C#N)cc2)nc1NC1CC1)N(C)C(=O)/C=C/CN(C)C [Compound 9-27] | < 10 nM | < 10 nM | < 10 nM |  |  | 
CCCNc1nc(Nc2ccc(C#N)cc2)ncc1C#CCCCNC(=O)[C@@H]1C[C@@H](F)CN1C(=O)/C=C/CN(C)C [Compound 7-48] | < 10 nM | < 10 nM | < 10 nM |  |  | 
CCCNc1nc(Nc2ccc(C(N)=O)cc2)ncc1C#Cc1ccc2nc(CNC(=O)/C=C/CN(C)C)[nH]c2c1 [Compound 8-9] | 10 to 100 nM | 10 to 100 nM | < 10 nM |  |  | 
CNc1nc(Nc2cccc(F)c2)ncc1C#CCCCNC(=O)[C@@H]1CCCN1C(=O)/C=C/CN(C)C [Compound 7-77] | < 10 nM | < 10 nM | < 10 nM |  |  | 
CCCNc1nc(Nc2cccc(F)c2)ncc1-c1nc2ccc(NC(=O)[C@H](C)N(C)C(=O)/C=C/CN(C)C)cc2o1 [Compound 6-23, (S,E)-4-(dimethylamino)-N-(1-((2-(2-((3-fluorophenyl)amino)-4-(propylamino)pyrimidin-5-yl)benzo[d]oxazol-6-yl)amino)-1-oxopropan-2-yl)-N-methyl-2-butenamide] | 100 to 1000 nM | 100 to 1000 nM | 10 to 100 nM |  |  | 
CCCNc1nc(Nc2ccc(C#N)cc2)ncc1C#CCCCNC(=O)[C@@H]1CCCCN1C(=O)/C=C/CN(C)C [Compound 7-37] | < 10 nM | < 10 nM | < 10 nM |  |  | 
CCCNc1nc(Nc2ccc(C#N)cc2)ncc1C#CCCCNC(C)(C)CN(C)C(=O)/C=C/CN(C)C [Compound 8-11] | < 10 nM | < 10 nM | < 10 nM |  |  | 
CCCNc1nc(Nc2ccc(OC)c(F)c2)ncc1C#CCCCNC(=O)[C@H](C)N(C)C(=O)/C=C/CN(C)C [Compound 7-20, (S,E)-4-(Dimethylamino)-N-(1-((5-(2-((3-fluoro-4-methoxyphenyl)amino)-4-(propylamino)pyrimidin-5-yl)-4-pentyn-1-yl)amino)-1-oxopropan-2-yl)-N-methyl-2-butenamide] | < 10 nM | < 10 nM | < 10 nM |  |  | 
CCCNc1nc(Nc2ccnc(OC)c2)ncc1C#CCCCNC(=O)[C@@H]1CCCN1C(=O)/C=C/CN(C)C [Compound 9-35, (S,E)-1-(4-(Dimethylamino)-2-butenoyl)-N-(5-(2-((2-methoxypyridin-4-yl)amino)-4-(propylamino)pyrimidin-5-yl)-4-pentyn-1-yl)pyrrolidine-2-carboxamide] | < 10 nM | < 10 nM | < 10 nM |  |  | 
CCCNc1nc(Nc2ccc(C(N)=O)cc2)ncc1C(=O)NCCCNc1ncccc1NC(=O)/C=C/CN(C)C [Compound 3-29] | 10 to 100 nM | 10 to 100 nM | < 10 nM |  |  | 
CCCNc1nc(Nc2ccc(C#N)cc2)ncc1C#CCCCNC(=O)[C@@H]1CCN1C(=O)/C=C/CN(C)C [Compound 7-52] | < 10 nM | < 10 nM | < 10 nM |  |  | 
CCCNc1nc(Nc2ccc(C#N)cc2)ncc1C#CCCC(=O)NC(C)(C)CN(C)C(=O)/C=C/CN(C)C [Compound 8-16] | 100 to 1000 nM | 10 to 100 nM | 10 to 100 nM |  |  | 
C[C@@H](C(=O)NCCCC#Cc1cnc(Nc2cccc(F)n2)nc1NC1CC1)N(C)C(=O)/C=C/CN(C)C [Compound 9-23] | 100 to 1000 nM | 10 to 100 nM | 10 to 100 nM |  |  | 

The remaining lines, values ahead:

IC50 (Molm-13 cells; [2]) | IC50 (MV4-11 cells; [3]) | IC50 [1, 4] | IC50 (Molm-13 cells; MOLM-13, MOLM13 cell) | IC50 (MV4-11 cells; MV4-11, MV4-11 cell) | IC50 ([1]; FLT3 (WT)) | Compound
< 10 nM | < 10 nM | < 10 nM |  |  |  | CN(C)C/C=C/C(=O)N1CCC[C@H]1C(=O)NCCCC#Cc1cnc(Nc2ccc3cn[nH]c3c2)nc1NC1CC1 [Compound 10-75]
10 to 100 nM | < 10 nM | < 10 nM |  |  |  | C[C@@H](C(=O)NCCCC#Cc1cnc(Nc2ccc(F)cc2)nc1N1CCN(C)CC1)N(C)C(=O)/C=C/CN(C)C [Compound 10-28]
< 10 nM | < 10 nM | < 10 nM |  |  |  | CNc1nc(Nc2cccc(C#N)c2)ncc1C#C[C@@H]1CCC[C@H](NC(=O)[C@H](C)N(C)C(=O)/C=C/CN(C)C)C1 [Compound 21-1, (E)-N—((S)-1-(((1S,3R)-3-((2-((3-cyanophenyl)amino)-4-(methylamino)pyrimidin-5-yl)ethynyl)cyclohexyl)amino)-1-oxopropan-2-yl)-4-(dimethylamino)-N-methyl-2-butenamide]
< 10 nM | < 10 nM | < 10 nM |  |  |  | CCNc1nc(Nc2ccc3[nH]ncc3c2)ncc1C#CCCCNC(=O)[C@@H]1CCCN1C(=O)/C=C/CN(C)C [Compound 10-67, (S,E)-N-(5-(2-((1H-Indazol-5-yl)amino)-4-(ethylamino)pyrimidin-5-yl)-4-pentyn-1-yl)-1-(4-(dimethylamino)-2-butenoyl)pyrrolidine-2-carboxamide]
< 10 nM | < 10 nM | < 10 nM |  |  |  | CCCNc1nc(Nc2cccc(F)c2)ncc1C#C[C@@H]1CCC[C@H](NC(=O)[C@H](C)N(C)C(=O)/C=C/CN(C)C)C1 [Compound 13-1, (E)-4-(dimethylamino)-N—((S)-1-(((1S,3R)-3-((2-((3-fluorophenyl)amino)-4-(propylamino)pyrimidin-5-yl)ethynyl)cyclohexyl)amino)-1-oxopropan-2-yl)-N-methyl-2-butenamide]
 |  |  | < 10 nM | < 10 nM | < 10 nM | CCCNc1nc(Nc2ccc3c(OC)n[nH]c3c2)ncc1C#CCCCNC(=O)[C@H](C)N(C)C(=O)/C=C/CN(C)C [Compound 22-65]
 |  |  | < 10 nM | < 10 nM | < 10 nM | C[C@@H](C(=O)N[C@H]1CCC[C@@H](C#Cc2cnc(Nc3cccc(C#N)c3)nc2NC2CC2)C1)N(C)C(=O)/C=C/CN(C)C [Compound 21-47]
< 10 nM | < 10 nM | < 10 nM |  |  |  | C[C@@H](C(=O)N[C@H]1C[C@@H](C#Cc2cnc(Nc3cccc(C#N)c3)nc2NC2CC2)C1)N(C)C(=O)/C=C/CN(C)C [Compound 13-20, (E)-N—((S)-1-(((1S,3R)-3-((2-((3-Cyanophenyl)amino)-4-(cyclopropylamino)pyrimidin-5-yl)ethynyl)cyclobutyl)amino)-1-oxopropan-2-yl)-4-(dimethylamino)-N-methyl-2-butenamide]
< 10 nM | < 10 nM | < 10 nM |  |  |  | CNc1nc(Nc2ccc(F)nc2)ncc1C#C[C@@H]1CCC[C@H](NC(=O)[C@H](C)N(C)C(=O)/C=C/CN(C)C)C1 [Compound 15-3]
< 10 nM | < 10 nM | < 10 nM |  |  |  | C[C@@H](C(=O)N[C@H]1C[C@@H](C#Cc2cnc(Nc3ccc(C#N)cc3)nc2NCCCF)C1)N(C)C(=O)/C=C/CN(C)C [Compound 15-14, (E)-N—((S)-1-(((1S,3R)-3-((2-((4-Cyanophenyl)amino)-4-((3-fluoropropyl)amino)pyrimidin-5-yl)ethynyl)cyclobutyl)amino)-1-oxopropan-2-yl)-4-(dimethylamino)-N-methyl-2-butenamide]
10 to 100 nM | < 10 nM | < 10 nM |  |  |  | C[C@@H](C(=O)NCCCC#Cc1cnc(Nc2cccc(F)c2)nc1NCCC#N)N(C)C(=O)/C=C/CN(C)C [Compound 10-8]
